Data as given in a melting point compilation (Tetko et al.; mined from patent text by program, amines drawn as free bases though some values may be those of a salt).

Row | SMILES | melting point [°C]
1 | CC(O)c1nccc(N2CCc3cc(-c4ccsc4)ccc3C2)n1 (stereo not given) | 126 to 128
2 | CCCc1cc(C(O)(CC)CC)ccc1-c1cc(O)ccc1CC | 130
3 | NS(=O)(=O)c1cc2ccc(O)cc2o1 | 185 to 187
4 | CCn1c(-c2ccc(OC)c(OC)c2)cc(=S)n(C)c1=O | 147 to 150
5 | CC1(C)CC[C@@H](C(=O)O)[C@@H]1SC(=O)c1ccccc1 (relative stereo) | 131
6 | O=C1NCN(c2ccc(F)cc2)C12CCN(CCCN(c1ccc(F)cc1)c1ccc(F)cc1)CC2 | 162 to 163
7 | CCn1c2ccccc2c2cc(/C=C/C(=O)CC(=O)/C=C/c3ccc4c(c3)c3ccccc3n4CC)ccc21 | 264 to 267
8 | OC(Cn1cncn1)(c1ccccc1)c1ccccc1 | 128 to 129
9 | CC(C)(C)OC(=O)N1CCn2c(c(C(N)=O)c(C#N)c2C2CCN(C(=O)OCc3ccccc3)CC2)C1 | 90
10 | BrCc1ccc(C=Cc2ccccc2)cc1 | 125 to 127
11 | CCCc1c(COc2ccc(-c3nnn(CCCN(C)C)n3)cc2)ccc(C(C)=O)c1O | 89 to 91
12 | CCOC(=O)c1csc2nc(C(=O)OC)cn12 | 187 to 189
13 | COc1ccccc1N1CCN(C(=O)N(C)c2nc3ccccc3nc2OC)CC1 | 128 to 130
14 | N#Cc1ccccc1-c1cc(-c2cnc3nc(C(F)(F)F)cnn23)ccc1F | 168 to 174
15 | CCOP(=O)(CS(=O)(=O)Oc1ccccc1)OCC | 50.5 to 51.5
16 | CC(C)(C)OC(=O)N1CCN(c2cccc3c2cnn3S(=O)(=O)c2ccccc2)CC1 | 130
17 | Cc1ccccc1-c1cn(C)cc(-c2cccc(C(F)(F)F)c2)c1=S | 193 to 195
18 | C1=CC2=c3ccccc3=NC2=C1 | 143 to 145
19 | O=C(c1cc(N2CCOCC2)ccn1)N(O)Cc1ccccc1 | 105 to 110
20 | CC(=O)N1c2ccccc2CC1C(N)=S (stereo not given) | 194 to 195
21 | NCC(O)(CCc1ccccc1)CCc1ccccc1 | 104 to 106
22 | C=CCc1cc2c(c(CC=C)c1O)CCC(=O)N2CC(O)CC (stereo not given) | 115 to 116
23 | COC(=O)NNC(C)=S | 99 to 100
24 | Cn1cncc1C(O)(c1ccc(Cl)cc1)c1ccc2c(c1)c(-c1cccs1)cc(=O)n2C (stereo not given) | > 260
25 | COC(=O)C1CN(C(=O)c2cc(OC)c(OC)c(OC)c2)CCN1C(=O)C1=Cc2cc(OC)c(OC)cc2CCC1 (stereo not given) | 134

Row | SMILES | melting point [°C]
26 | CC(C)(C)C(=O)Nc1nc(Cl)c2c(n1)[nH]c1ccccc12 | 234
27 | CC(C)C[C@H]1C(=O)NC2CCC(=O)N21 (stereo not given in full) | 156 to 157
28 | COCCc1nc2c(N)nc3ccccc3c2n1CC(C)(C)CNS(C)(=O)=O | 204 to 206
29 | CN(C)CCc1cccc(OCCNc2nc(N)nn2C)c1 | 72
30 | O=C1NC(=O)C(c2cn3c4c(cccc24)C(O)CC3)=C1c1c[nH]c2ccccc12 (stereo not given) | 165 to 168
31 | CCOC(=O)c1cnoc1-c1ccc(C(F)(F)F)cc1 | 42 to 44
32 | C[C@@H]1N=C(c2ccccc2Cl)c2c(ccc(N)c2Br)N(C)C1=O | 243
33 | NC(=O)CCC(=O)NCCS | 173
34 | CC(C)C[C@H](N)C(=O)N[C@@H](CC1CCCCC1)[C@@H](O)c1ccccn1 | 98 to 100
35 | COc1ccc(CC2c3c(cc(OC)c(OC)c3O)CCN2C)cc1 (stereo not given) | 112 to 114
36 | CCOc1ccc(Cl)cc1C(N)=O | 136 to 139
37 | Cn1cc(C2=C(c3cn4c5c(cccc35)CCC4CCO)C(=O)NC2=O)c2ccccc21 (stereo not given) | 214 to 215
38 | COc1ccc2[nH]cc(CCCCN3CC=C(c4cccs4)CC3)c2c1 | 158
39 | N#CCN1C(=O)C2(COc3cc4c(cc32)OCO4)c2ccccc21 (stereo not given) | 170 to 172
40 | O=C(O)COc1c(Br)cc(-c2c3ccccc3c(Br)c3sc4ccccc4c23)cc1Br | 259 to 261
41 | COC(=O)c1ccc(S(=O)(=O)N2CC[C@H](O)C2)n1C | 108 to 109
42 | CCCCC(=O)NCc1ccc2c(c1)C(=O)N(C1CCC(=O)NC1=O)C2=O (stereo not given) | 184 to 186
43 | O=c1ccccn1C(c1ccccc1)c1ccccc1 | 142 to 145
44 | Cn1cc(C2=C(c3cc[nH]c3)C(=O)NC2=O)c2ccccc21 | 240 to 241
45 | CC(=O)OCC(C)C1CCC2C3CC=C4CC(O)CCC4(C)C3CCC12C (stereo not given) | 143
46 | NCc1cc(-c2ccc(C(F)(F)F)cc2)no1 | 59
47 | O=C1CC(c2ccco2)Cc2occ(C(F)(F)F)c21 (stereo not given) | 94 to 95
48 | Nc1ccccc1N1CCN(C=O)CC1 | 129 to 133
49 | O=[N+]([O-])c1ccc(F)c2ccccc12 | 75 to 76
50 | O=C(NCC12CC3CC(CC(C3)C1)C2)c1cc(NCCNCC(O)c2ccccc2)ccc1Cl (stereo not given) | 63 to 64

Row | SMILES | melting point [°C]
51 | CCOc1ccc(CC(CO)NC(=O)c2ccnc(Br)c2)cc1OCC (stereo not given) | 97 to 99
52 | CCOC(=O)c1cnoc1-c1ccc2c(c1)OCO2 | 73 to 74
53 | COC(=O)c1c(O)c2ccccc2n1-c1ccc(OC)cc1 | 153 to 155
54 | Cc1ccc(S(=O)(=O)NC(=O)c2cc(Oc3ccc(C(F)(F)F)cc3Cl)ccc2[N+](=O)[O-])cc1 | 150
55 | CCCCCS(=O)(=O)NC(=O)CCCc1ccc(OCCOCC)cc1Oc1ncc(C(F)(F)F)cc1Cl | 96 to 97
56 | NC(=O)N1C(=O)Cc2ccc(-c3ccccc3)cc21 | 188 to 189
57 | CCCCCCC1=CC(O)(C(Br)Br)N(c2ccccc2)C1=O (stereo not given) | 43 to 45
58 | Cc1cc(-c2sc(N3CCN(Cc4ccc(F)cc4)C3=O)nc2C)n[nH]1 | 218 to 221
59 | CCCCc1oc2ccccc2c1C(=O)N(Cc1ccccc1)Cc1ccc2cc(O)ccc2c1 | 160 to 164
60 | CON=C(c1ccc(OC(C)(C)C(=O)O)cc1)c1cccs1 | 168
61 | Cc1c(NC(=O)CC(C)(C)C)cc2c(c1C)OC(C)(C)C2Nc1ccccc1OC(F)(F)F (stereo not given) | 196 to 197
62 | O=C1Cc2cccc3c2N1CCC3 | 90 to 93
63 | CCOc1ccccc1C(=O)Nc1c(OC)cccc1C(N)=O | 177 to 179
64 | N#Cc1cc(Cl)c(NC(=O)C(F)(F)F)c(Cl)c1 | 134 to 136
65 | O=C(O)c1ccc(OCCCCCCc2ccc3cc(O)c(O)cc3c2)cc1O | 190 to 192
66 | O=c1[nH]nc2n1C=Cc1cc(Cl)ccc1C2 | 281 to 283
67 | COc1nc(N)nc(-c2ccccc2)n1 | 159 to 160
68 | CS(=O)(=O)c1ccc(-c2cnn(CC(F)(F)F)c(=O)c2Oc2cccnc2)cc1 | 191 to 193
69 | CS(=O)(=O)n1c(C#N)nc2cc3c(cc21)OC(F)(F)C(F)(F)O3 | 180 to 183
70 | CCNC(=O)NC1(c2ccc(C(C)C)cc2OC)C(=O)c2ccccc2C1=O | 267 to 269
71 | CC(=O)N1CCN(c2cc3nc(C(C)(C)C)sc3cc2N)CC1 | 182 to 185
72 | COc1cc(COc2ncccc2CO)ccc1OCc1nc(-c2ccccc2)oc1C | 143 to 144
73 | CCCC1Cc2c(c(C)c(C)c3oc(C(=O)O)cc23)C1=O (stereo not given) | 287
74 | CCOC(=O)c1cc(OCC)c(OC(C)C)cc1N | 91 to 93
75 | NC(=O)Cc1ccc(-c2nc3ccccc3o2)cc1 | 251 to 255
